Where two headings read alike, the source gives them in different places.
Columns and labels:
[1] = tested on: CHOK1 GS cells; experiment: CellTiter-Glo cytotoxicity assay in CHOK1 GS cell line; type: cell-based, Chinese hamster; conditions: Cricetulus griseus
Experimental: To assay the potential toxicity induced in the CHO cell culture by the Trp degradation products found in this study, a cytotoxicity assay CellTiter-Glo® Luminescent Cell Viability Assay (Cat #G7572, Promega, Madison, WI, USA) was used, following the manufacturer’s instructions. Briefly, the cells were seeded with 25,000 viable cells per cavity of a 96-well opaque white cell culture plate (Thermo Fisher, Waltham, MA, USA) in 80 µL of a pre-warmed medium. […] A DMSO control was added in the same concentration range as the tryptophan degradation compounds were diluted.

[2] = tested on: CHOK1 cells; experiment: CellTiter-Glo cytotoxicity assay in CHOK1 cell line; type: cell-based, Chinese hamster; conditions: Cricetulus griseus
Experimental: (§1) To assay the potential toxicity induced in the CHO cell culture by the Trp degradation products found in this study, a cytotoxicity assay CellTiter-Glo® Luminescent Cell Viability Assay (Cat #G7572, Promega, Madison, WI, USA) was used, following the manufacturer’s instructions. Briefly, the cells were seeded with 25,000 viable cells per cavity of a 96-well opaque white cell culture plate (Thermo Fisher, Waltham, MA, USA) in 80 µL of a pre-warmed medium. Tryptophan degradation compounds were added in triplicates to the cells, ranging from 1 mM to 46 nM. A DMSO control was added in the same concentration range as the tryptophan degradation compounds were diluted. The dose response curves were fitted with a 4PL model by GraphPad Prism v.7 (GraphPad Software, San Diego, CA, USA) after luminescence readout with an EnVision 2104 Multilabel Reader (Perkin Elmer, Waltham, MA, USA).

[3] = tested on: CHOZN 10 cells; experiment: CellTiter-Glo cytotoxicity assay in CHOZN 10 cell line; type: cell-based, Chinese hamster; conditions: Cricetulus griseus, read-out: [GI50] CHOZN 10
Experimental: as §1

[4] = Color measurement (ΔE*) of standards spiked into feed; type: physicochemical; conditions: theoretical 500 µM, 1% DMSO, ΔE* > 1 deemed significant
Experimental: (§2) Compounds were dissolved in DMSO at 50 mM and then spiked into the solutions to achieve a final compound concentration of 500µM. Some of the tested compounds formed a precipitate immediately upon spiking of the DMSO solution. As the precipitates in solution can interfere with the absorption measurement, each sample was centrifuged prior to taking absorption measurements, meaning that the final concentrations were not all at 500 µM. […] In stability experiments, eight of these nine compounds (all except 46) were present in at least one condition in the degraded water samples, and four of these nine compounds (28, 31, 38, and 46) were present in the degraded feed.
(§3) Absorbance measurements were taken in the range of 380 nm to 780 nm (20 nm steps) of 100 µL of the samples in four technical replicates (Envision, Perkin Elmer, Waltham, MA, USA). From the absorbance values, the change in color was calculated using L*a*b* and ΔE* values according to DIN 5033-3 and DIN 6174 norms. The CIE 1931 standard observer (2°) and the D65 illuminant were selected.
(§4) Chemical standards were prepared as 50 mM stocks in DMSO and then spiked into the aqueous solutions (either water or feed) to achieve a theoretical compound concentration of 500 µM (1% DMSO). The solutions were centrifuged, and the absorbance measurements of these solutions was measured and converted to ΔE* values as described above. The control condition was pure DMSO (1% v/v).

[5] = Color measurement (ΔE*) of standards spiked into water; type: physicochemical; conditions: theoretical 500 µM, 1% DMSO, ΔE* > 1 deemed significant
Experimental: as §2, §3, §4

[6] = tested on: CHOZN 6 cells; experiment: CellTiter-Glo cytotoxicity assay in CHOZN 6 cell line; type: cell-based, Chinese hamster; conditions: Cricetulus griseus, read-out: [GI50] CHOZN 6
Experimental: as §1

[7] = tested on: CHO cells; experiment: CHO cell toxicity summarised across the four CHO cell lines; type: cell-based, Chinese hamster; conditions: Cricetulus griseus; across all four CHO cell lines; read-out: GI50 across all cell lines
Experimental: as §1

[8] = Degradation of tryptophan in water under stressed conditions; type: physicochemical; conditions: 10 mM Trp in water pH 7, 70 °C, after 24 days
Experimental: For the Trp solutions, 10 mM Trp solutions were prepared in water with a pH adjustment to pH 7.0 ± 0.3 using NaOH(aq.) and sterile filtered with Steriflip® filter units (Merck, Darmstadt, Germany). For H2O2 exposure testing, the solutions were spiked with hydrogen peroxide (30%, 8.82 M) to 0, 10, 25, 50, or 100 mM, and stored for 4h at RT (~19–23 °C), light-protected. For the UV exposure effects, the solutions were stored for 4 h under a UV-lamp set to an intensity of 540 V (UV-A, -B and -C radiation). Samples tested for temperature effects were stored light-protected for 24 days at 4 °C, room temperature (RT, i.e., ~19–23 °C), 37 °C, or 70 °C. Feed solutions were sterile-filtered as above and stored for 98 days at 4 °C, RT (~19–23 °C) or 37 °C. The samples were either stored light-protected or exposed to laboratory fluorescent lighting with partial exposure to glass-filtered daylight (light-exposed). For testing the a-ketoglutaric acid effects in feed, dry powder feed was reconstituted with a-ketoglutaric acid, pH adjusted to 7.0 ± 0.3 with NaOH (aq.), filtered as above, and stored light-protected at RT (~19–23 °C) or 37 °C for 98 days. Ammonia was quantified using Cedex Bio HT (Roche, Mannheim, Germany). Aliquots were frozen at −20 °C for subsequent amino acid analysis and LC-MS.
Amino acid analysis was performed using a pre-column derivatization using the AccQ Tag® Ultra Reagent kit. […]

[9] = tested on: cancer cell lines; set-up: method as in PMID 22047643; conditions: cited from earlier work
[10] = tested on: CHO cells; conditions: cited from earlier work
[11] = CHO-K1, CHOK1 GS cell line, 1 mM to 46 nM, 4PL fit, read-out: [GI50] CHOK1 GS
[12] = CHO-K1, CHOK1 cell line, 1 mM to 46 nM, 4PL fit, read-out: [GI50] CHOK1
[13] = CHOZN 10 cell line, 1 mM to 46 nM, 4PL fit
[14] = CHOZN 6 cell line, 1 mM to 46 nM, 4PL fit
[15] = CHO-K1, read-out: [GI50] CHOK1 GS

Molecule `CC(C)CC1NC(C(=O)O)Cc2c1[nH]c1ccccc21` (centres unmarked) [Compound 56, 2,3,4,9-Tetrahydro-1-(2-methylpropyl)-1H-pyrido[3,4-b]indole-3-carboxylic acid] has a GI50 [1, 11] greater than 1000 µM.
Molecule `O=C(O)C1Cc2c([nH]c3ccccc23)C=N1` (centres unmarked) [Compound 24] has a GI50 [2, 12] of 312 µM, a GI50 [3, 13] of 306 µM and a GI50 [1, 11] of 343 µM. For the same molecule, the “Color change as measured by ΔE* in feed” value [4] was “significant color change”, the “Color change as measured by ΔE* in water” value [5] was “significant color change” and the GI50 [6, 14] was 314 µM. It also gave a GI50 [7] greater than 226 µM.
Work on `OC12CCNC1Nc1ccccc12` (centres unmarked) [Compound 10] yielded a GI50 [1, 11] greater than 1000 µM.
Molecule `NC(CC(=O)c1ccccc1NC=O)C(=O)O` (centres unmarked) [Compound 2, N-Formylkynurenine] has a GI50 [1, 11] greater than 1000 µM.
`CC1NC(C(=O)O)CC12C(=O)Nc1ccccc12` (centres unmarked) [Compound 25] showed a GI50 [1, 11] greater than 1000 µM.
For `NC(CC1C(=O)Nc2ccccc21)C(=O)O` (centres unmarked) [Compound 3, 2-amino-3-(2-oxo-2,3-dihydro-1h-indol-3-yl)propanic acid (Oia)], the GI50 [1, 11] was greater than 1000 µM.
For `N[C@@H](Cc1c[nH]c2ccccc12)C(=O)O` [Trp, L-Tryptophan], the Trp total loss [8] was 42%.
For `O=C1Cc2ccccc2N1` [Compound 19, 2-Oxindole], the GI50 [1, 11] was greater than 1000 µM.
`O=C(O)c1cc2c([nH]c3ccccc32)c(-c2ccccc2)n1` [Compound 16] gave a GI50 [2, 12] of 74.9 µM, a GI50 [3, 13] of 57.6 µM and a GI50 [1, 11] of 76.6 µM. The “Color change as measured by ΔE* in water” value [5] was “significant color change” and the GI50 [6, 14] was 88.5 µM.
In the case of `O=C(O)c1cc2c([nH]c3ccccc32)c(C(=O)c2c[nH]c3ccccc23)n1` [Compound 31, 1-(1H-Indol-3-ylcarbonyl)-9H-pyrido[3,4-b]indole-3-carboxylic acid], the GI50 [2, 12] is given as 21.6 µM, the “toxicity against some cancer cell lines” value [9] is given as “demonstrated toxicity against some cancer cell lines” and the GI50 [3, 13] is given as 14.4 µM. The GI50 [1, 11] was 34.6 µM, the “Color change as measured by ΔE* in feed” value [4] was “significant color change” and the GI50 [6, 14] was 13 µM. The GI50 [7] was 10 to 22 µM.
In the case of `O=C(O)c1cc2c([nH]c3ccccc32)c(-c2ccnc3ccccc23)n1` [Compound 38], the GI50 [2, 12] is reported as 124 µM, the GI50 [3, 13] is reported as 114 µM and the GI50 [1, 11] is reported as 118 µM. For the same molecule, the “Color change as measured by ΔE* in water” value [5] was “significant color change” and the GI50 [6, 14] was 98.9 µM.
Work on `NCCc1c[nH]c2ccccc12` [Compound 11, Tryptamine] yielded a GI50 [1, 15] greater than 1000 µM.
In the case of `NC(=O)Cc1c[nH]c2ccccc12` [Compound 47, 3-Indoleacetamide], the GI50 [1, 11] is reported as greater than 1000 µM.
Molecule `CC1NC(C(=O)O)Cc2c1[nH]c1ccccc21` (stereo not drawn) [Compound 23, 1-Methyl-2,3,4,9-tetrahydro-1H-beta-carboline-3-carboxylic acid] has a GI50 [1, 11] greater than 1000 µM.
In the case of `O=C(O)CCC(=O)C(=O)O` [aKG, a-Ketoglutaric acid], the “effect on the CHO cell culture” value ([10]; up to 50 mM) is listed as “no detrimental effect”.
`O=CCc1c[nH]c2ccccc12` [Compound 12, Indole-3-acetaldehyde] showed a GI50 [2, 12] of 116 µM, a GI50 [3, 13] of 92.3 µM and a GI50 [1, 11] of 64.5 µM. For the same molecule, the GI50 [6, 14] was 54.5 µM.
Work on `c1ccc2c(c1)[nH]c1cnccc12` [Compound 27, Norharmane] yielded a GI50 ([2]; CHO-K1, read-out: [GI50] CHOK1) of 74.8 µM, a GI50 [3] of 64.5 µM and a GI50 [1, 15] of 127 µM. For the same molecule, the GI50 [6] was 98.5 µM.
Work on `NCCc1c(O)[nH]c2ccccc12` [Compound 9] yielded a GI50 [1, 11] greater than 1000 µM.
With `NC(CC1(O)C(=O)Nc2ccccc21)C(=O)O` [Compound 4, 3-(3-Hydroxy-2-oxo-2,3-dihydro-1H-indol-3-yl)-L-alanine (diOia)] the GI50 [1, 11] was greater than 1000 µM.
With `O=Cc1c[nH]c2ccccc12` [Compound 18, Indole-3-carboxaldehyde] the GI50 [2, 12] was 226 µM, the GI50 [3, 13] was 258 µM and the GI50 [1, 11] was 295 µM. For the same molecule, the GI50 [6, 14] was 236 µM and the GI50 [7] was greater than 226 µM.
`CC(=O)c1nccc2c1[nH]c1ccccc12` [Compound 62, 1-Acetyl-β-carboline] gave a GI50 [1, 11] greater than 1000 µM.
Molecule `O=C(O)c1nccc2c1[nH]c1ccccc12` [Compound 5, 9H-Pyrido[3,4-b]indole-1-carboxylic acid] has a GI50 [2, 12] of 158 µM, a GI50 [3, 13] of 75.5 µM and a GI50 [1, 11] of 118 µM. For the same molecule, the “Color change as measured by ΔE* in feed” value [4] was “significant color change”, the “Color change as measured by ΔE* in water” value [5] was “significant color change” and the GI50 [6, 14] was 76.7 µM.
For `O=C(c1c[nH]c2ccccc12)c1nccc2c1[nH]c1ccccc12` [Compound 32, 1H-Indol-3-yl-9H-pyrido[3,4-b]indol-1-ylmethanone], the “toxicity against some cancer cell lines” value [9] is listed as “demonstrated toxicity against some cancer cell lines” and the GI50 [1, 11] is listed as greater than 1000 µM.
Work on `c1ccc2ncccc2c1` [Compound 8, Quinoline] yielded a GI50 [1, 15] greater than 1000 µM.
`N[C@@H](Cc1c(Cc2c[nH]c3ccccc23)[nH]c2ccccc12)C(=O)O` [Compound 14, 2-(3-Indolylmethyl)-L-tryptophan] showed a GI50 [1, 11] greater than 1000 µM.
In the case of `OCc1nccc2c1[nH]c1ccccc12` [Compound 29], the GI50 [2, 12] is reported as 389 µM, the GI50 [3, 13] is reported as 347 µM and the GI50 [1, 11] is reported as 157 µM. It also gave a GI50 [6, 14] greater than 1000 µM.
`Cc1nccc2c1[nH]c1ccccc12` [Compound 28, Harmane] showed a GI50 ([2]; CHO-K1, read-out: [GI50] CHOK1) of 74.9 µM, a GI50 [3] of 77.3 µM and a GI50 [1, 15] of 170 µM. The “Color change as measured by ΔE* in feed” value [4] was “significant color change” and the GI50 [6] was 65.5 µM.
`O=C(O)C1CC2(O)c3ccccc3NC2N1` (centres unmarked) [Compound 6, 1,2,3,3a,8,8a-Hexahydro-3a-hydroxypyrrolo[2,3-b]indole-2-carboxylic acid (PIC)] showed a GI50 [1, 11] greater than 1000 µM.
For `O=C(O)CCC(=O)O` [Compound 66, succinic acid], the “toxicity to CHO cells” value [10] is listed as “not toxic to CHO cells”.
In the case of `Nc1ccccc1C(=O)CC(N)C(=O)O` (centres unmarked) [Compound 1, Kynurenine], the GI50 [1, 11] is reported as greater than 1000 µM.
In the case of `Cc1ncc(CO)c(C2NC(C(=O)O)Cc3c2[nH]c2ccccc32)c1O` (centres unmarked) [Compound 42], the GI50 [1, 11] is reported as greater than 1000 µM.
Molecule `Cc1nc(C(=O)O)cc2c1[nH]c1ccccc12` [Compound 45] has a GI50 [1, 11] greater than 1000 µM.
With `O=C(O)c1ccnc2ccccc12` [Compound 21, 4-Quinolinecarboxylic acid] the GI50 [1, 11] was greater than 1000 µM.
For `Oc1ccnc2ccccc12` [Compound 20, 4-Hydroxyquinoline], the GI50 [1, 15] was greater than 1000 µM.

From paper PMC8228365, “Degradation Products of Tryptophan in Cell Culture Media: Contribution to Color and Toxicity” (International Journal of Molecular Sciences, 2021)
